# Like-named read-outs stand apart in the source and are kept apart here.
# Key:
# [1] = molecular target: T1, trypsin-activated MMP-9 from THP-1 cells (MMP-9(T)) (Homo sapiens, UniProt P14780); assay: MMP-9(T) inhibition, continuous initial rate assay with McaPLGL(Dpa)AR-NH2 after 15 min preincubation; type: biochemical; conditions: for inhibition at 100 µM: read-out: inhibition (reduction of activity) of MMP-9(T); for Ki: substrate McaPLGL(Dpa)AR-NH2 4 µM, 4–6 experiments, read-out: Ki ± sd MMP-9(T)
# T1 construct: endogenous in cells; host or cells: THP-1 cells stimulated with PMA
# T1 sequence (P14780 107-707 limits assumed): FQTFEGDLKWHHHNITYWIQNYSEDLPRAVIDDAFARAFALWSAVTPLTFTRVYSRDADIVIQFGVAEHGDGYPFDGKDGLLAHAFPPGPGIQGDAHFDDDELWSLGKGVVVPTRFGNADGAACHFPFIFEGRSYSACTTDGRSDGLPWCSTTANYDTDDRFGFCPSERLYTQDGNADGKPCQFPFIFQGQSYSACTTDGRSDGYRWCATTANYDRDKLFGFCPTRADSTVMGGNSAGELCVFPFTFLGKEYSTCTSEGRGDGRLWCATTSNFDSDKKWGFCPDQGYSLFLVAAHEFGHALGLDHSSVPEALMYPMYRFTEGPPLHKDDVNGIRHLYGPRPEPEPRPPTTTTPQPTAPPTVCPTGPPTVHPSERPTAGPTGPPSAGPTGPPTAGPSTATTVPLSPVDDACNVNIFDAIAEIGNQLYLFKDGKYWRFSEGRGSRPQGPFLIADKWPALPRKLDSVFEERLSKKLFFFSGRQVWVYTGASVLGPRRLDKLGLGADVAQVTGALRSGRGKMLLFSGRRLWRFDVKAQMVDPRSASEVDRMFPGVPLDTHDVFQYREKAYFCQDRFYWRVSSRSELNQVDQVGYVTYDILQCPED
# Method: (§1) The inhibitorial power of 100 μM of the eight catechol containing compounds was tested against the two human metalloproteases MMP-9(T) and MMP-14 and the three bacterial metalloproteases ALN, PLN and TLN (Figure 1). In order to detect putative slow and slow-tight binding, the catechol derivatives were first incubated along with the enzyme for 15 min at 37 °C. In controls without inhibitor present, enzymes and buffer were preincubated under identical conditions. Thereafter, the enzyme reaction was started by adding the relevant […] substrate and the rate was followed continuously for 30 min. […] The activity was reduced with more than 50%, by MT336 for the two MMPs, by BF482 for MMP-9(T) and by ML33 for ALN (Figure 1). In all other inhibitory studies with catechol containing compounds, the activity was reduced between 0 and 45%.
# (§2) To assure that this is correct, the inhibitors BF471 and BF489 were tested against varying McaRPPGFSAFK(Dnp)-OH using TLN as described in the Experimental section. […] It should be noted that the reaction was started by adding the enzyme to the substrate-inhibitor mixtures. In the case of slow binding, the full potential of these inhibitors would not be realised by this inhibitory assay. When the activity was reduced by more than […], experiments were performed with varying concentrations of the catechol derivatives. IC50 values were obtained from dose response plots, and Ki values were determined from the IC50 values based on substrate competitive inhibition. By the use of Ki values, we can compare the binding strength of the compounds for the different enzymes and not only comparing the compounds ability to bind one enzyme. There are several possible explanations for the deviation in determined Ki value of BF471 and BF489 for TLN from the dose response plots and the double inverse plots.
# The purified proMMP-9 was activated by trypsin, by mixing approximately 300 µg of proMMP-9 with trypsin (31 μg/ml) for 10 min at 37 °C in 0.1 M Hepes pH 7.5, 0.005% Brij35% and 10 mM CaCl2. The activation and processing of MMP-9 were terminated by adding a 50 times excess of SBTI (2.7 mg/ml) in relation to trypsin and after 10 min incubation at room temperature, the mixture was transferred and kept on ice during the kinetic and inhibition kinetic measurements. After activation, the activity was determined with 10 µM of McaPLGL(Dpa)AR-NH2 in 0.1 M Hepes pH 7.5, 0.005% Brij35% and 10 mM CaCl2 in a total assay volume of 100 µL, at 37 °C. Initial rates were measured at an excitation wavelength of 320 nm and an emission wavelength of 405 nm with a slit width of 10 nm using a Perkin Elmer LS 50 Luminescence spectrometer and the FL WinLab Software Package (Perkin Elmer). The amount of active MMP-9 was determined by active site titration using galardin as described previously.
# The various inhibitors were dissolved in 100% DMSO giving an inhibitor concentration of 10 mM. All the inhibitory and control experiments contained a total and fixed concentration of 1.0% DMSO. […] The fixed enzyme concentration were as follows; 0.28 nM MMP-9(T), 0.05 nM MMP-9(A), 1.0 nM MMP-14, 1.4 nM ALN, 0.5 nM PLN and 0.21 nM TLN. Enzymes with and without inhibitors were pre-incubated for 15 min at 37 °C, the initial rate assays were started by adding the substrate and the reaction was followed for 30 min. Assays were performed using a Spectra Max Gemini EM micro-plate reader (Molecular Devices) or a Clario Star micro plate reader (CLARIOstar® BMG LABTECH). Assays were performed at 37 °C, using an excitation wavelength of 320 nm and an emission wavelength of 405 nm with a slit width of 10 nm. […]
# [2] = molecular target: T2, Human MT1-MMP/MMP-14 (catalytic domain) (Homo sapiens, UniProt P50281); assay: MMP-14 inhibition, continuous initial rate assay with McaPLGL(Dpa)AR-NH2 after 15 min preincubation; type: biochemical; conditions: for inhibition at 100 µM: 100 μM compound, 15 min preincubation at 37 °C, 4 μM substrate, read-out: inhibition (reduction of activity) of MMP-14; for Ki: substrate McaPLGL(Dpa)AR-NH2 4 µM, 4–6 experiments, read-out: Ki ± sd MMP-14
# T2 construct: Human MT1-MMP/MMP-14 (catalytic domain); purchased Calbiochem (San Diego, CA, USA)
# Method: as §1, §2
# (§3) The various inhibitors were dissolved in 100% DMSO giving an inhibitor concentration of 10 mM. All the inhibitory and control experiments contained a total and fixed concentration of 1.0% DMSO. […] The fixed enzyme concentration were as follows; 0.28 nM MMP-9(T), 0.05 nM MMP-9(A), 1.0 nM MMP-14, 1.4 nM ALN, 0.5 nM PLN and 0.21 nM TLN. Enzymes with and without inhibitors were pre-incubated for 15 min at 37 °C, the initial rate assays were started by adding the substrate and the reaction was followed for 30 min. Assays were performed using a Spectra Max Gemini EM micro-plate reader (Molecular Devices) or a Clario Star micro plate reader (CLARIOstar® BMG LABTECH). Assays were performed at 37 °C, using an excitation wavelength of 320 nm and an emission wavelength of 405 nm with a slit width of 10 nm. The IC50 values were calculated either in Sigma Plot (Enzyme kinetics 1.3 module) or in Graph Pad Prism 5 using Equations (1) or (2) depending on the concentration span of the used inhibitor: (1) vi/v0= 1/(1+ 10^(pIC50−pI)) (2) vi/v0= 1/(1+ [I]/IC50) where vi is the enzyme activity in the presence of inhibitor, v0 the activity in the absence of inhibitor, pI=−log [Inhibitor] in M and pIC50 = −log IC50 in M. All experiments were performed in at least triplicate.
# [3] = molecular target: T3, pseudolysin (PLN) (Pseudomonas aeruginosa, UniProt P14756); assay: PLN inhibition, continuous initial rate assay with McaRPPGFSAFK(Dnp)-OH after 15 min preincubation; type: biochemical; conditions: for inhibition at 100 µM: read-out: inhibition (reduction of activity) of PLN
# T3 construct: purchased Calbiochem (San Diego, CA, USA)
# T3 sequence (P14756 198-498): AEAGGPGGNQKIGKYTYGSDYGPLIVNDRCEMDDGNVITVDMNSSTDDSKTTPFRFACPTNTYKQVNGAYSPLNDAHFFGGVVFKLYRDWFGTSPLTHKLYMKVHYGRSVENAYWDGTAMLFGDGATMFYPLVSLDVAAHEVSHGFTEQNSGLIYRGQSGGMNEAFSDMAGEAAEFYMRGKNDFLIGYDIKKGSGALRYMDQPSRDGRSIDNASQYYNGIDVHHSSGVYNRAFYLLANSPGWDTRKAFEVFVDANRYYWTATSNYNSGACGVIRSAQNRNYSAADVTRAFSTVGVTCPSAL
# Method: as §1, §2, §3
# [4] = molecular target: T4, aureolysin (ALN) (Staphylococcus aureus, UniProt P81177); assay: ALN inhibition, continuous initial rate assay with McaRPPGFSAFK(Dnp)-OH after 15 min preincubation; type: biochemical; conditions: for inhibition at 100 µM: read-out: inhibition (reduction of activity) of ALN, 100 μM compound, 15 min preincubation at 37 °C, 4 μM substrate
# T4 construct: purchased BioCentrum Ltd (Kraków, Poland)
# T4 sequence (P81177 209-509): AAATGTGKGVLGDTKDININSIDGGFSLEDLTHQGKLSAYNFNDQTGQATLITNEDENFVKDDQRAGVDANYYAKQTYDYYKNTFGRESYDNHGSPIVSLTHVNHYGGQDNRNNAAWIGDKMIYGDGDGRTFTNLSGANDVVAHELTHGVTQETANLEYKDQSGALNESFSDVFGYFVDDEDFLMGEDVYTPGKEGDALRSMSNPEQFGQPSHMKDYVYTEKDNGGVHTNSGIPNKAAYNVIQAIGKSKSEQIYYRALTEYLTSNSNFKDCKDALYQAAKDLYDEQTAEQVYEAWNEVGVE
# Method: as §1, §2, §3
# [5] = molecular target: T5, thermolysin (TLN) (Bacillus thermoproteolyticus, UniProt P00800); assay: TLN inhibition, continuous initial rate assay with McaRPPGFSAFK(Dnp)-OH after 15 min preincubation; type: biochemical; conditions: for Ki: substrate McaRPPGFSAFK(Dnp)-OH 4 µM, 4–6 experiments, read-out: Ki ± sd TLN; for inhibition at 100 µM: 100 μM compound, 15 min preincubation at 37 °C, 4 μM substrate, read-out: inhibition (reduction of activity) of TLN
# T5 construct: purchased Calbiochem (San Diego, CA, USA)
# T5 sequence (P00800 233-548): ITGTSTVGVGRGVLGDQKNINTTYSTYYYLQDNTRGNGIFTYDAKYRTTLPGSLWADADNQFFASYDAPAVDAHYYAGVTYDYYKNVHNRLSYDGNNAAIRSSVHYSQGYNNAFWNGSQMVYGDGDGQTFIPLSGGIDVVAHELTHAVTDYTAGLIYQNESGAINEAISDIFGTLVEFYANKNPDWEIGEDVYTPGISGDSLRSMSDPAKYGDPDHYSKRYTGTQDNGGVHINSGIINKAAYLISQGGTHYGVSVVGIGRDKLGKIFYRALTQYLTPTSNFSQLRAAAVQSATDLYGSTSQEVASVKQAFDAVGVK
# Method: as §1, §2, §3
# [6] = molecular target: T6, TLN (Bacillus thermoproteolyticus, UniProt P00800); assay: TLN inhibition against varying McaRPPGFSAFK(Dnp)-OH, reaction started by adding enzyme (double inverse plots); type: biochemical; conditions: no preincubation, read-out: Ki TLN from varying substrate
# T6 construct: purchased Calbiochem (San Diego, CA, USA)
# T6 sequence (P00800 233-548): as above
# Method: as §2
# [7] = molecular target: APMA-activated recombinant MMP-9 (rMMP-9(A)) (Homo sapiens, UniProt P14780); assay: rMMP-9(A) inhibition in Tris-HCl buffer with varied preincubation time, followed continuously for 3 h; type: biochemical; conditions: 100 µM, 0.1 M Tris-HCl pH 7.5, N = 4
# APMA-activated recombinant MMP-9 (rMMP-9(A)), sequence (P14780 107-444 limits assumed): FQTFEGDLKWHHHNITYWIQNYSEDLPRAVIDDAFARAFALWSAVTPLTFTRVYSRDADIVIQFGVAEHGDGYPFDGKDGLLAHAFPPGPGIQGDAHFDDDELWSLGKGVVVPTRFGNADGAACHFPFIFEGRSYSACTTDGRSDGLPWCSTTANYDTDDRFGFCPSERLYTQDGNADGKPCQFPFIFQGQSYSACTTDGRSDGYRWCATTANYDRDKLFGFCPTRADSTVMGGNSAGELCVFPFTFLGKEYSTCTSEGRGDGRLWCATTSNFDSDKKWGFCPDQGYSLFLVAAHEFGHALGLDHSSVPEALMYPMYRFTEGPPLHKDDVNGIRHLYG
# From the text: Except for ML33, all catechol derivatives have previously been tested for binding to MMP-2, MMP-8 and MMP-9[60]. […] The Ki values for MMP-9 in the present study were higher than the IC50 values in the previous study, the exception was MT336 for which we obtained a lower value. It is not easy to point out a single factor in the experiments contributing to deviations between the studies. Both studies used a pH of 7.5 but the buffer compositions were slightly different. […] Tauro et al.[60] used a commercial active MMP-9 produced in E-coli that only contained the catalytic domain and the fibronectin-like (FnII) module. […] A factor that may contribute to differences is that after preincubation of MMP-9 with catechol derivatives and adding of the substrate for starting the reaction, we followed the reaction continuously for 30 min, while Tauro et al.[60] used an endpoint assay allowing the reaction to proceed for 2 to 4 h before the fluorescence was measured. We did some tests to determine if some of these differences could affect the binding results. In the test experiments, we used rMMP-9(A) which differs from the MMP-9(T) by a slightly different N-terminal and a largely truncated C-terminal HPX domain[57]. One hundred µM of BF466 was tested where the 0.1 M Hepes buffer pH 7.5 was exchanged to a 0.1 M Tris-HCl buffer pH 7.5. The rMMP-9(A) was preincubated with BF466 for 0, 15 and 30 min at 37 °C and the reaction was started by the addition of the substrate McaPLGL(Dpa)AR-NH2 (4 µM in the assay) following the reaction continuously for 3 h. The controls without BF466 were treated identically. […] The reaction was allowed to proceed for 4 h, and the reaction was stopped by addition of EDTA (end concentration 10 mM) and the relative fluorescence intensity determined.
# The expression and purification of recombinant human full-length proMMP-9 (rpMMP-9) from Sf9 insect cells were performed as described previously. […] The amount of active MMP-9 was determined by active site titration using galardin also described previously.
# [8] = test system: COc1ccc2c(CC(=O)N[C@@H](CCCNC(=N)N)C(=O)N3CCC[C@H]3C(=O)N3CCC[C@H]3C(=O)NCC(=O)N[C@@H](Cc3ccccc3)C(=O)N[C@@H](CO)C(=O)N[C@@H](C)C(=O)N[C@@H](Cc3ccccc3)C(=O)N[C@@H](CCCCNc3ccc([N+](=O)[O-])cc3[N+](=O)[O-])C(=O)O)cc(=O)oc2c1; assay: purified protein, by the assay type; conditions: other: 1% DMSO; regarded as uncertain, highest substrate concentration 10 µM; pH 7.5
# Method: For TLN, the Km value was also determined with a DMSO concentration of 2%.
# Km values were determined for McaPLGL(Dpa)AR-NH2 with APMA-activated recombinant MMP-9 (rMMP-9(A)), trypsin-activated MMP-9 from THP-1 cells (MMP-9(T)) and MMP-14, and for Mca[sequence](Dnp)-OH with ALN, PLN and TLN. Substrate concentrations used were 1–10 µM in a total volume of 100 µL of 0.1 M Hepes pH 7.5 containing 10 mM CaCl2, 0.005% Brij-35 and 1.0% DMSO. […] Initial rate experiments were performed as described above for the determination of enzyme activity of MMP-9 during activation and the same excitation and emission wavelengths were used for both substrates.
# [9] = 100 μM compound, 15 min preincubation at 37 °C, 4 μM substrate
# [10] = catechol compounds, Ki from IC50, substrate competitive
Compound,"inhibition at 100 µM [1, 9] [%]","Ki [1, 10] [µM]",inhibition at 100 µM [2] [%],inhibition at 100 µM [4] [%],Ki [3] [µM],further results
O=C(NCc1ccc(-c2ccccc2)cc1)c1cccc(O)c1O [MT336],> 50,13 ± 1,> 50,–,–,"Ki [2, 10]: 12 ± 1 µM"
O=S(=O)(NCc1cccc(O)c1O)c1ccc(Br)cc1 [BF482],> 50,–,–,–,–,"inhibition (reduction of activity) of PLN [3, 9]: did not affect"
COc1ccc(S(=O)(=O)Nc2cccc(O)c2O)cc1 [ML33],–,–,–,> 50,–,–
O=P(O)(O)C(Nc1ccc(-c2ccccc2)cc1)P(=O)(O)O [MT363],–,–,–,–,12 ± 4,Ki ([5]; bisphosphonates): 7 ± 1 µM; Ki ([1]; bisphosphonates): 6.6 ± 0.4 µM; Ki ([2]; bisphosphonates): 7.2 ± 0.6 µM
O=S(=O)(NCc1ccc(O)c(O)c1)c1ccc(Br)cc1 [BF486],–,–,–,–,–,"inhibition (reduction of activity) of MMP-9(T) [1, 9]: did not affect"
O=P(O)(O)C(Nc1ccc(Cl)cc1)P(=O)(O)O [ML45],–,–,–,–,37 ± 6,Ki ([2]; bisphosphonates): 17 ± 1 µM
O=[N+]([O-])c1ccc(S(=O)(=O)NC(P(=O)(O)O)P(=O)(O)O)cc1 [RC2],–,–,–,–,22 ± 3,Ki ([5]; bisphosphonates): 16.2 ± 0.4 µM
O=S(=O)(Nc1ccc(O)c(O)c1)c1ccc(Br)cc1 [BF489],> 50,12.6 ± 0.6,> 50,> 50,16 ± 3,"Ki [6]: 73 ± 11 µM; inhibition at 100 µM [5]: > 50%; Ki [5, 10]: 14 ± 5 µM; inhibition at 100 µM [3]: > 50%; Ki [2, 10]: 8.3 ± 0.6 µM"
O=S(=O)(Nc1cccc(O)c1O)c1ccc(-c2ccccc2)cc1 [ML32],> 50,51 ± 17,> 50,> 50,38 ± 8,"inhibition at 100 µM [3]: > 50%; Ki [2, 10]: 19 ± 0.8 µM"
O=S(=O)(NCc1cccc(O)c1O)c1ccc(-c2ccccc2)cc1 [BF466],–,–,–,–,–,vi/v0 rMMP-9(A) ([7]; preincubation 0 min at 37 °C): 0.74 ± 0.04; vi/v0 rMMP-9(A) ([7]; preincubation 15 min at 37 °C): 0.68 ± 0.02; vi/v0 rMMP-9(A) ([7]; preincubation 30 min at 37 °C): 0.73 ± 0.05
O=S(=O)(Nc1ccc(O)c(O)c1)c1ccc(-c2ccccc2)cc1 [BF471],> 50,13 ± 2,> 50,> 50,9 ± 3,"Ki [6]: 57 ± 6 µM; inhibition at 100 µM [5]: > 50%; Ki [5, 10]: 13 ± 2 µM; Ki [4]: 49 ± 5 µM; inhibition at 100 µM [3]: > 50%"
ALN (Staphylococcus aureus),–,–,–,–,–,Km [8]: 76 ± 7 µM
COc1ccc(S(=O)(=O)NC(P(=O)(O)O)P(=O)(O)O)cc1 [LS4],–,–,–,–,58 ± 4,–
